pIC50: −log10 of the molar value.
How the values were obtained:
[1] = system: macrophage-mediated intravasation of human breast cancer cells (MDA-MB 231-GFP); assay: In vitro intravasation-directed transendothelial migration (iTEM) assay; format: cell-based; details: BAC1.2F5 macrophages, HUVEC monolayer
Method: In vitro intravasation-directed transendothelial migration (iTEM) assay protocol. The iTEM assay was performed in a Transwell two-chamber apparatus. The Transwell was prepared so that tumor cell transendothelial migration of tumor cells was in the intravasation direction (from subluminal side to luminal side of the endothelium). We define this as the iTEM assay. To prepare the endothelial monolayer, the underside of each Transwell was coated with 50 μl of Matrigel (2.5 μg/ml; Invitrogen). About 100,000 HUVEC cells were plated on the Matrigel-coated underside of the Transwells. Transwells were then flipped onto a 24-well plate containing 200 μl of α-MEM (minimum essential medium) supplemented with 10% fetal bovine serum (FBS)+3000 U of CSF-1 and incubated until the endothelium formed impermeable monolayers. […] Once impermeable by these criteria, the Transwell assay was used for iTEM studies. All the assays were run in the presence of BAC1.2F5 murine macrophage cell line and MDA-MB 231-GFP human breast cancer cells. Transwells were imaged using a Leica SP5 confocal microscope using a 60×1.4 numerical aperture objective and processed using ImageJ [National Institutes of Health (NIH)] and IMAMS programs. Quantitation was performed by counting the number of tumor cells that had crossed the endothelium within the same field of view (60×, 10 random fields).

uTIE2 kinase = target: T1, uTIE2 kinase (Homo sapiens, UniProt Q02763); assay: Biochemical assay for uTIE2 kinase (pyruvate kinase/lactate dehydrogenase coupled); details: ATP 1.5 mM; rate 5 to 6 h; read-out: IC50, inhibition of uTIE2 kinase
T1 construct: purchased SignalChem
T1 sequence (Q02763 771-1124): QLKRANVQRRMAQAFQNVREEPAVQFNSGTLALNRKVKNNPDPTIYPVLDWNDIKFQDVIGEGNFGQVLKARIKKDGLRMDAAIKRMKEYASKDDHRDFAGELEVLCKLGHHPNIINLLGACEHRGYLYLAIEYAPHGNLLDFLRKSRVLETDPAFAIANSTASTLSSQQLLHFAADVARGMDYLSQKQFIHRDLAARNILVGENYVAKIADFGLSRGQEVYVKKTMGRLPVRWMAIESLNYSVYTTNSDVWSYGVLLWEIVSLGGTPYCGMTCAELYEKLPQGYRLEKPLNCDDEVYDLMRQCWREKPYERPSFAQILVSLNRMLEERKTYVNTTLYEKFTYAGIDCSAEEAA
Method: Activity of uTIE2 kinase was determined by following the production of ADP from the kinase reaction through coupling with the pyruvate kinase/lactate dehydrogenase system [Schindler 2000]. In this assay, the oxidation of NADH (thus the decrease at A340 nm) was continuously monitored spectrophotometrically. The reaction mixture (100 μL) contained TIE2 (SignalChem) (5.6 nM), BSA (0.004% (w/v)), polyEY (1.5 mg/ml), MgCl2 (15 mM), DTT (0.5 mM), pyruvate kinase (4 units), lactate dehydrogenase (7 units), phosphoenol pyruvate (1 mM), and NADH (0.28 mM) and ATP (1.5 mM) in 90 mM Tris buffer containing 0.2% octyl-glucoside and 1% DMSO, pH 7.5. […] The absorption at 340 nm was monitored continuously for 6 hours at 30° C. on a plate reader (BioTek). The reaction rate was calculated using the 5 to 6 h time frame. Percent inhibition was obtained by comparison of reaction rate with that of a control (i.e. with no test compound).

B16/F10 cells = assay: B16/F10 metastatic melanoma model; details: Compound 1 15 mg/kg
TIE2 = TIE2 (Homo sapiens, UniProt Q02763); assay: HUVEC Phospho-TIE2 Western Blot Assay; format: cell-based; parameters: host or cells: HUVEC; details: 4 hours compound; 800 ng/mL ANG1 complex 15 minutes; read-out: IC50, ANG1-stimulated phospho-TIE2 in HUVECs
Sequence of TIE2 (Q02763 23-1124): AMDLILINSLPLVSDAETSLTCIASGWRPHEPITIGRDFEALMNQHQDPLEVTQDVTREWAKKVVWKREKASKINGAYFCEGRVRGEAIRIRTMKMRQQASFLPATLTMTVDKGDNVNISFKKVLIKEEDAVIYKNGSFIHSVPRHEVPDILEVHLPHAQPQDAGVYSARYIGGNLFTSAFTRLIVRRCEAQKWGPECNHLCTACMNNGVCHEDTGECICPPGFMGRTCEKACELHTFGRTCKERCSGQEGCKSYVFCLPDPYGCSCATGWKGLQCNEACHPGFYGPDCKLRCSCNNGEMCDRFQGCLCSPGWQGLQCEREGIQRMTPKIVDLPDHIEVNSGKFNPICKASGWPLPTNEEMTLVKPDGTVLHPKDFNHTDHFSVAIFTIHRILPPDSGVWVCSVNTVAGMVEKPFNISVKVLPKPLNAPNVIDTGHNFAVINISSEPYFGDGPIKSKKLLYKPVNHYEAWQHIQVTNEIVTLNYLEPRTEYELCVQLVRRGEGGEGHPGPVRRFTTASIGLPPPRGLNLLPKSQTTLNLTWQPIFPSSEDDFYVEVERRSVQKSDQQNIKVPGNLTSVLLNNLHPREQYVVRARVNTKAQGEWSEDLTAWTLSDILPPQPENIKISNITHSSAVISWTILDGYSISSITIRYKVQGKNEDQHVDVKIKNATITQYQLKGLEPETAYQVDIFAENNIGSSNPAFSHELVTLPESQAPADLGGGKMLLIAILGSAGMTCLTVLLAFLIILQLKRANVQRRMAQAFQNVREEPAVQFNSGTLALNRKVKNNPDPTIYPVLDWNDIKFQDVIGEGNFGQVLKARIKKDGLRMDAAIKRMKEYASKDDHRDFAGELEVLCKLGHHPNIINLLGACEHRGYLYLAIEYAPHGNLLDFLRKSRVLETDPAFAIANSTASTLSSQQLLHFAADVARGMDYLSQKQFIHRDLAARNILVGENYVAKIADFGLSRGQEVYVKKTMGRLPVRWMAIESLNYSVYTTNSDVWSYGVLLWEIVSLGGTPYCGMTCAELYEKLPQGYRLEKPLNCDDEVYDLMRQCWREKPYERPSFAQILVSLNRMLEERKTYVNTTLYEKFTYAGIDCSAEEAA
Method: HUVEC cells (2.5×10^5 cells/well) were added to a 24-well tissue-culture treated plate in 1 mL of EGM-2 culture medium (Lonza, Walkersville, Md.). Cells were then incubated overnight at 37 degrees Celsius, 5% CO2, and 95% humidity. Media was then aspirated and 1 mL EBM-2 basal medium (Lonza, Walkersville, Md.) supplemented with 2% FBS (Invitrogen, Carlsbad, Calif.) was added. […] The plates were then incubated for 4 hours at 37 degrees Celsius, 5% CO2, and 95% humidity. During the incubation, histidine-tagged angiopoietin 1 (ANG1) growth factor (R&D Systems, Minneapolis, Minn.) was added to an anti-polyhistidine antibody (R&D Systems, Minneapolis, Minn.) for 30 minutes at room temperature to generate multimers of ANG1. […] The media was aspirated and the cells were washed with PBS. The cells were lysed using MPER lysis buffer (Pierce, Rockford, Ill.) containing Halt Phosphatase and Protease Inhibitors (Pierce, Rockford, Ill.) and Phosphatase inhibitor cocktail 2 (Sigma, St. Louis, Mo.) at 4° C. for 10 minutes with shaking. […] Fluorescence was detected using a Storm 840 phosphorimager (GE Healthcare, Piscataway, N.J.) in fluorescence mode. The 160 kDa phospho-TIE2 band was quantified using ImageQuant software (GE Healthcare, Piscataway, N.J.). Data was analyzed using Prism software (GraphPad Software, San Diego, Calif.) to calculate the IC50 value.

SMILES: O=C(Nc1cc(Oc2cc(F)c(NC(=O)C3(C(=O)Nc4ccc(F)cc4)CC3)cc2F)ccn1)C1CC1 [Compound 1, N-(4-(2-(cyclopropanecarboxamido)pyridin-4-yloxy)-2,5-difluorophenyl)-N′-(4-fluorophenyl)cyclopropane-1,1-dicarboxamide]
- pIC50 [1]: > 8.00
- pIC50 (uTIE2 kinase): 8.10
- T-C (B16/F10 cells): > 4.3 days
- Treated animals with metastases on Day 21 (ex vivo BLI) (B16/F10 cells; 2/12 animals): 16.6%
- Inhibition of the development of pulmonary metastases (B16/F10 cells; Day 21): 72%
- % T/C, tumor growth on Day 21 (B16/F10 cells; treatment from Day 0): 30%
- pIC50 (TIE2): 9.00

— patent publication US20170079966A1, “INHIBITION OF TUMOR CELL INTERACTIONS WITH THE MICROENVIRONMENT RESULTING IN A REDUCTION IN TUMOR GROWTH AND DISEASE PROGRESSION” (Deciphera Pharmaceuticals, LLC, priority 2014, published 2017)
